{"source": "patent US11801239B2", "about": "“Powder injection of the donepezil semi palmoxiric acid salt, composition containing same and preparation method therefor” (priority 2017, dated 2023)", "key": {"[1]": {"details": "measured by a laser granulometer", "experimental": "Step 3: 0.2 g of donepezil semi pamoate seed crystals (the preparation method refers to example 4 of patent WO2013078608) were added into the filtrate obtained in step 1 to obtain a solution. Then the filtrate obtained in step 2 was slowly and dropwise added into the above solution at room temperature over 1 hour, slowly stirred for 5-10 hours with an anchor stir bar and filtered.\nStep 1 and step 2 are the same as those of powder 1 #. Step 3: 0.2 g of donepezil semi pamoate seed crystals (the preparation method is the same as above) were added into the filtrate obtained in step 1 to obtain a solution. Then the filtrate obtained in step 2 was slowly and dropwise added into the above solution at 4-10° C. over 1 hour, stirred for 1-2 hours at room temperature and filtered.\nStep 1 and step 2 are the same as those of powder 1 #. Step 3: 0.2 g of donepezil semi pamoate seed crystals (the preparation method refers to patent WO2013078608) were added into the filtrate obtained in step 1 to obtain a solution. Then the obtained solution was heated to 50-60° C. The filtrate obtained in step 2 was slowly and dropwise added into the above solution. After completion of the addition, the reaction solution was cooled to room temperature, stirred for 1-2 hours, and filtered."}, "[2]": {"details": "for Appearance observed: dry powder; for Angle of repose: funnel method, arctg (H/r); for fluidity: judged from angle of repose", "experimental": "The angle of repose is a common index for evaluating the fluidity of dry powder. When measuring the angle of repose, the funnel is fixed at a suitable height H. The dry powder prepared in Example 1 was placed in a funnel and naturally leaked to form a pile until tip of the cone almost contacts the outlet of the funnel. Then, the radius r of the bottom surface of the cone was measured, and the angle of repose is arctg (H/r)."}, "[3]": {"details": "160° C. for 2 hours", "experimental": "The powder 3 # prepared in Example 1 was placed at 160° C. for 2 hours, and the changes in appearance and weight loss thereof were recorded."}}}
{"molecule": "COc1cc2c(cc1OC)C(=O)C(CC1CCN(Cc3ccccc3)CC1)C2.COc1cc2c(cc1OC)C(=O)C(CC1CCN(Cc3ccccc3)CC1)C2.O=C(O)c1cc2ccccc2c(Cc2c(O)c(C(=O)O)cc3ccccc23)c1O", "note": "[Powder 1#, donepezil semi pamoate]", "values": [{"measurement": "average particle size D50", "setting": "[1]", "value": "90 ± 17", "unit": "µm"}, {"measurement": "Appearance observed", "setting": "[2]", "value": "Homogeneous solid particles"}, {"measurement": "Angle of repose", "setting": "[2]", "value": "28 ± 4", "unit": "°"}, {"measurement": "fluidity", "setting": "[2]", "value": "certain fluidity"}]}
{"molecule": "COc1cc2c(cc1OC)C(=O)C(CC1CCN(Cc3ccccc3)CC1)C2.COc1cc2c(cc1OC)C(=O)C(CC1CCN(Cc3ccccc3)CC1)C2.O=C(O)c1cc2ccccc2c(Cc2c(O)c(C(=O)O)cc3ccccc23)c1O", "note": "[Powder 2#, donepezil semi pamoate]", "values": [{"measurement": "average particle size D50", "setting": "[1]", "value": "42 ± 10", "unit": "µm"}, {"measurement": "Appearance observed", "setting": "[2]", "value": "Homogeneous solid particles"}, {"measurement": "Angle of repose", "setting": "[2]", "value": "35 ± 3", "unit": "°"}, {"measurement": "fluidity", "setting": "[2]", "value": "certain fluidity"}]}
{"molecule": "COc1cc2c(cc1OC)C(=O)C(CC1CCN(Cc3ccccc3)CC1)C2.COc1cc2c(cc1OC)C(=O)C(CC1CCN(Cc3ccccc3)CC1)C2.O=C(O)c1cc2ccccc2c(Cc2c(O)c(C(=O)O)cc3ccccc23)c1O", "note": "[Powder 3#, donepezil semi pamoate]", "values": [{"measurement": "average particle size D50", "setting": "[1]", "value": "13 ± 2", "unit": "µm"}, {"measurement": "Appearance observed", "setting": "[2]", "value": "Homogeneous solid particles"}, {"measurement": "Angle of repose", "setting": "[2]", "value": "42 ± 1", "unit": "°"}, {"measurement": "fluidity", "setting": "[2]", "value": "certain fluidity"}, {"measurement": "changes in appearance", "setting": "[3]", "value": "gradually changed from light yellow to bright brown, and finally coagulated and melted"}, {"measurement": "weight loss", "setting": "[3]", "value": "about 5.14%"}]}
{"molecule": "COc1cc2c(cc1OC)C(=O)C(CC1CCN(Cc3ccccc3)CC1)C2.COc1cc2c(cc1OC)C(=O)C(CC1CCN(Cc3ccccc3)CC1)C2.O=C(O)c1cc2ccccc2c(Cc2c(O)c(C(=O)O)cc3ccccc23)c1O", "note": "[Powder 4#, donepezil semi pamoate]", "values": [{"measurement": "average particle size D50", "setting": "[1]", "value": "3 ± 1", "unit": "µm"}, {"measurement": "Appearance observed", "setting": "[2]", "value": "Homogeneous solid particles"}, {"measurement": "Angle of repose", "setting": "[2]", "value": "38 ± 3", "unit": "°"}, {"measurement": "fluidity", "setting": "[2]", "value": "certain fluidity"}]}
{"molecule": "COc1cc2c(cc1OC)C(=O)C(CC1CCN(Cc3ccccc3)CC1)C2.COc1cc2c(cc1OC)C(=O)C(CC1CCN(Cc3ccccc3)CC1)C2.O=C(O)c1cc2ccccc2c(Cc2c(O)c(C(=O)O)cc3ccccc23)c1O", "note": "[Powder 5#, donepezil semi pamoate]", "values": [{"measurement": "average particle size D50", "setting": "[1]", "value": "0.9 ± 0.4", "unit": "µm"}, {"measurement": "Appearance observed", "setting": "[2]", "value": "Obvious static electricity,"}, {"measurement": "Angle of repose", "setting": "[2]", "value": "50 ± 4", "unit": "°"}, {"measurement": "fluidity", "setting": "[2]", "value": "poor fluidity"}]}
